Assay results published in US4797417A, “Furanone derivatives, process for preparation thereof and use thereof” (Fujisawa Pharmaceutical Co., Ltd., priority 1982, dated 1989).
Read-outs that look alike come from different tables or passages of the source.

Molecular target: T1, aldose reductase (Oryctolagus cuniculus, UniProt P15122)
T1 construct: The lenses were homogenized with 3 volumes of distilled water at 4° C; from tissue; host or cells: rabbit lens (homogenate, 10,000 G supernatant, dialysed)
Experiment: Aldose reductase-inhibiting activity, enzymatic assay (decrease in NADPH, D,L-glyceraldehyde substrate, rabbit lens enzyme solution)
Format: biochemical
Conditions: concentration at which the aldose reductase activity is inhibited by 50%, pH 6.2, 35° C., 2 minutes
Experimental: (1) Enzymatic assay method:
The above reactants were mixed and reacted at 35° C. for 2 minutes and the decrease in amount of NADPH was measured with an Automatic Reaction Rate Analyzer Model LKB-8600 of LKB Producter A. B. The enzyme activity at achange in absorbance of 0.001 per minute was taken as unity.
(2) Method for preparing an enzyme solution
Rabbit eyes were enucleated and the lenses collected. The lenses were homogenized with 3 volumes of distilled water at 4° C. (All the subsequent procedures were also performed at 4° C.) and centrifuged at 10,000 G for 60 minutes. The supernatant was dialyzed against 2 liters of 0.05 M of saline solution and the interal fluid was used as the enzyme solution.

Row | SMILES | IC50 (IC50 (M)) | IC50 (read-out: IC50)
1 | COC1=C(c2cccc(C(F)(F)F)c2)C(CCC(=O)O)OC1=O (stereo not drawn) [Example 20, 3-[4-Methoxy-5-oxo-3-(3-trifluoromethylphenyl)2,5-dihydro-2-furyl]propionicacid] | 4.8e-07 M | –
2 | COC1=C(c2ccccc2)C(CCC(=O)O)OC1=O (stereo not drawn) [Example 18, 3-(4-Methoxy-5-oxo-3-phenyl-2,5-dihydro-2-furyl)propionic acid] | – | 2.2e-07 M
3 | CCOC1=C(c2ccccc2)C(CCC(=O)O)OC1=O (stereo not drawn) [Example 22, 3-(4-ethoxy-5-oxo-3-phenyl2,5-dihydro-2-furyl)propionic acid] | – | 2e-07 M
4 | COC1=C(c2ccc(Cl)cc2)C(CCC(=O)O)OC1=O (stereo not drawn) [Example 19, 3-[3-(4-Chlorophenyl)-4-methoxy-5-oxo-2,5-dihydro-2-furyl]propionic acid] | – | 1.5e-07 M
5 | O=C(O)CCC1OC(=O)C(O)=C1c1ccccc1 (single isomer, unassigned) [Example 30-3, (l)-3-(4-hydroxy-5-oxo-3-phenyl-2,5-dihydro-2-furyl)propionic acid] | – | 5.4e-07 M
6 | CCCCCOC1=C(c2ccccc2)C(CCC(=O)O)OC1=O (stereo not drawn) [Example 17, 3-(5-oxo-4-pentyloxy-3-phenyl2,5-dihydro-2-furyl)propionicacid] | – | 5e-08 M
7 | O=C(O)CCC1OC(=O)C=C1c1ccccc1 (stereo not drawn) [Example 29-8, 3-(2,5-dihydro5-oxo-3-phenyl-2-furyl)propionic acid] | – | 5.4e-07 M
8 | CCOC(=O)CCC1OC(=O)C(OC)=C1c1ccccc1 (stereo not drawn) [Example 4, ethyl 3-(4-methoxy-5-oxo-3-phenyl-2,5-dihydro-2-furyl)propionate] | – | 2.2e-07 M
9 | O=C(O)CCC1OC(=O)C(O)=C1c1ccccc1 (single isomer, unassigned) [Example 30-2, (d)-3-(4-hydroxy5-oxo-3-phenyl-2,5-dihydro-2-furyl)propionic acid] | – | 2.5e-06 M
